Measured values reported in patent US10213422B2, “Compositions and methods of inhibiting histone deacetylases” (YALE UNIVERSITY, priority 2014, dated 2019).
Each block holds one compound with its values, some of them ahead of it.

Assays:
[1] = test system: MEF2 transcriptional targets (Cx37, Cx40, KLF2); assay: MEF2 target expression in PAH PAECs (RT-PCR); assay type: cell-based, human; conditions: 1 μM for 24 h, vs. control/DMSO
Description: (§1) PAECs were isolated from normal and PAH explanted donor lungs, as described previously. Additional control PAECs were obtained from Lonza. PAECs from eleven control subjects, seven subjects with IPAH and three subjects with FPAH were studied. In brief, human pulmonary arteries were dissected from the lungs to the distal small arterioles, and PAECs were harvested from the isolated pulmonary arterial tree. PAECs were grown in EBM-2 basal medium supplemented with EGM-2 (Lonza) on fibronectin-coated plates. Cells were passaged at 70-80% confluency, and primary cultures of passages 3 to 7 were used in experiments. All apelin stimulations were done using apelin-13 peptide at 1 μM (Sigma). TSA (Sigma), MC1568 (Selleck Chemicals and DC Chemicals), TMP269 (DC Chemicals), and Tasquinimod (DC Chemicals) were dissolved in DMSO (Sigma) and used at the indicated doses. Total RNA was extracted with an RNA isolation kit, (miRNeasy RNA, Qiagen). Purified RNA was reverse transcribed with a cDNA synthesis kit (iScript cDNA Synthesis Kit, Bio-Rad). RT-PCR was performed with TaqMan probes for both genes and miRNAs (Applied Biosystems). All miRNA data were normalized to the internal control small RNAs RNU19 and HY3 for human samples and U87 for rat samples. For the mRNA samples, ribosomal 18S was used as an internal control. […]

FGF2 [2] = assay: FGF2 expression in PAH PAECs; assay type: cell-based, human; conditions: 1 μM for 24 h
Description: as §1

PAH PAECs [3] = assay: PAH PAEC proliferation assay; assay type: cell-based, human; conditions: PAH PAECs vs. DMSO
Description: PAECs (5×10^3 cells per well) were plated in a 96-well plate and treated with DMSO or MC1568. Cell proliferation was measured by a colorimetric kit for determining cell viability (CellTiter 96 AQueous One Solution Cell Proliferation Assay, Promega) per manufacturer's protocol.

PAH PAECs [4] = assay: PAH PAEC migration assay; assay type: cell-based, human; conditions: 1 μM
Description: PAECs were grown to post-confluence in 24-well plates, and then subjected to injury using a plastic pipette tip. They were then treated with vehicle or MC1568 (1 μM). The cells were allowed to migrate for 8 h, and the gap distance was calculated in at least five randomly selected microscopic fields per each sample.

[5] = test system: rats with experimental pulmonary hypertension; assay: Experimental pulmonary hypertension models in rats (MCT and SU-5416/hypoxia): hemodynamic, morphometric and cardiac analyses; assay type: in vivo, rat; conditions: for right ventricular hypertrophy (right ventricle to left ventricle plus septum weight ratios): SU5416/hypoxia, vs. control; for right ventricular systolic pressures: SU-5416/hypoxia, vs. DMSO
Description: Rat lung tissues were fixed and stained as previously described (Nature medicine 19, 74-82 (2013)). Standard methods (Trichrome Stain, Sigma) were used to stain for collagen in cardiac sections.
(§2) Male Sprague Dawley rats (200-250 g; Charles River Laboratories) were subcutaneously injected with monocrotaline (Sigma) (60 mg per kg body weight) for the MCT model. For the SUGEN model, SU-5416 (Sigma) was resuspended in DMSO (Sigma) and injected subcutaneously (20 mg per kg body weight). Rats were subsequently exposed to hypoxia (10% FiO2) for 2 weeks. Rats were given intraperitoneal administration of either the vehicle (DMSO), MC1568 (Sellek Chemicals and DC Chemicals) (50 mg per kg body weight), TMP269 (DC Chemicals) (intraperitoneal injection of 50 mg/kg/day for two weeks), or Tasquinimod (DC Chemicals) (oral gavage of 10 mg/kg/day for two weeks) daily as indicated (FIG. 13).
Right ventricular systolic pressure (RVSP) measurements were performed at the designated time points under isoflurane by inserting a catheter (Millar Instruments) into the right jugular vein as described previously.^21 Lungs were perfused with normal saline and fixed in 4% paraformaldehyde overnight for immunohistochemistry or snap frozen in liquid nitrogen for protein and RNA analyses. Hearts were dissected and weighed for calculation of the right ventricle to the left ventricle plus septum weight ratio. The same full section in the midportion of the left lung parallel to the hilum was used and embedded in the same manner for lung morphometric analyses. Pulmonary artery muscularization was assessed at ×200 magnification after staining for vWF and SMA by calculating the ratio of the number of muscularized peripheral pulmonary arteries to the number of total peripheral pulmonary arteries (with diameters less than 75 μm) in five random fields per lung (with each field at ×200 magnification). The total number of vessels less than 75 μm was expressed as the number of vessels counted per random microscope field (five random fields per lung at ×200 magnification). Pulmonary arteries with proliferating cells were assessed in PCNA stained lung sections. Vessels with one or more PCNA staining cell were considered to be PNCA positive. All measurements were carried out by investigators blinded to the experimental condition.

[6] = test system: MEF2 transcriptional targets (Cx37, Cx40 and KLF2); assay: MEF2 transcriptional target expression in PH model rats; assay type: in vivo, rat; conditions: PH models, MC1568 50 mg per kg intraperitoneal daily, vs. DMSO
Description: Total RNA was extracted with an RNA isolation kit, (miRNeasy RNA, Qiagen). Purified RNA was reverse transcribed with a cDNA synthesis kit (iScript cDNA Synthesis Kit, Bio-Rad). RT-PCR was performed with TaqMan probes for both genes and miRNAs (Applied Biosystems). All miRNA data were normalized to the internal control small RNAs RNU19 and HY3 for human samples and U87 for rat samples. For the mRNA samples, ribosomal 18S was used as an internal control. Individual RT-PCRs were performed on a CFX96 (Bio-Rad) according to the manufacturer's instructions. […]
Right ventricular systolic pressure (RVSP) measurements were performed at the designated time points under isoflurane by inserting a catheter (Millar Instruments) into the right jugular vein as described previously.^21 Lungs were perfused with normal saline and fixed in 4% paraformaldehyde overnight for immunohistochemistry or snap frozen in liquid nitrogen for protein and RNA analyses. […] Pulmonary artery muscularization was assessed at ×200 magnification after staining for vWF and SMA by calculating the ratio of the number of muscularized peripheral pulmonary arteries to the number of total peripheral pulmonary arteries (with diameters less than 75 μm) in five random fields per lung (with each field at ×200 magnification). […] Pulmonary arteries with proliferating cells were assessed in PCNA stained lung sections. […]

FGF2 [7] = assay: FGF2 expression in lungs of PH model rats; assay type: in vivo, rat; conditions: two PH models, lung homogenates, MC1568 50 mg per kg intraperitoneal daily
Description: as §2
Right ventricular systolic pressure (RVSP) measurements were performed at the designated time points under isoflurane by inserting a catheter (Millar Instruments) into the right jugular vein as described previously.^21 Lungs were perfused with normal saline and fixed in 4% paraformaldehyde overnight for immunohistochemistry or snap frozen in liquid nitrogen for protein and RNA analyses. […] The total number of vessels less than 75 μm was expressed as the number of vessels counted per random microscope field (five random fields per lung at ×200 magnification). Pulmonary arteries with proliferating cells were assessed in PCNA stained lung sections. […]

[8] = test system: human coronary artery endothelial cells; assay: Caspase 3 cleavage in human coronary artery endothelial cells; assay type: cell-based
HDAC4 [9] = biological target: T1, HDAC4 (Homo sapiens, UniProt P56524); assay: HDAC4 degradation in PAECs from a PAH patient (western blot); assay type: cell-based; conditions: 1 μM for 24 hr
T1 construct: phosphorylation of endogenously expressed HDAC4 and HDAC5; endogenous in cells; host or cells: PAECs from PAH patient(s)

HDAC5 [10] = biological target: T2, HDAC5 (Homo sapiens, UniProt Q9UQL6); assay: HDAC5 degradation in PAECs from a PAH patient (western blot); assay type: cell-based; conditions: 1 μM for 24 hr
T2 construct: phosphorylation of endogenously expressed HDAC4 and HDAC5; endogenous in cells; host or cells: PAECs from PAH patient(s)

class IIa HDACs = conditions: cited from earlier work
[11] = pulmonary artery banding, previous study; cited from earlier work
MEF2 = conditions: PAH PAECs, apelin 1 μM for 24 h
Description: Either control PAECs or PAH PAECs were transfected and lysed in lysis buffer (Promega). Renilla luciferase was used for normalization. Dual Luciferase Reporter System (Promega) was used according to the manufacturer's protocol. All experiments were performed three times in triplicates.

HDAC4-GFP = conditions: PAH PAECs, apelin 1 μM for 1 h
Description: (§3) For the apelin effect on HDAC4/5 translocation, PAECs plated on glass bottom culture dish (Mat-Tek) were transfected with GFP-tagged HDAC4 and HDAC5 expression vectors for 24 hours. Cells were imaged using a Nikon Eclipse Ti confocal microscopy before and after treatment with apelin 13 (1 μM for 1 h at 37° C.).

HDAC5-GFP = conditions: PAH PAECs, apelin 1 μM for 1 h
Description: as §3

HDAC4 [12] = conditions: PAH PAECs, apelin 1 μM for 1 h
Description: (§4) Western blotting was performed as previously described (eriosclerosis, thrombosis, and vascular biology 31, 814-820 (2011)). Each western blot is representative of three independent experiments done in triplicate. For the generation of cell lysates, lysis buffer (RIPA, Thermo Scientific) containing a protease and phosphatase inhibitor cocktail (Halt Protease and Phosphatase Inhibitor, Thermo Scientific) was used. Protein contents were measured using a detergent-compatible protein concentration assay (DC™ assay, Bio-Rad).

HDAC5 [13] = conditions: PAH PAECs, apelin 1 μM for 1 h
Description: as §4

[14] = MCT and SUGEN models, MC1568 50 mg per kg intraperitoneal daily, vs. vehicle (DMSO)
[15] = TMP269 intraperitoneal 50 mg/kg/day for two weeks
[16] = Tasquinimod oral gavage 10 mg/kg/day for two weeks

T2 sequence (Q9UQL6 whole entry): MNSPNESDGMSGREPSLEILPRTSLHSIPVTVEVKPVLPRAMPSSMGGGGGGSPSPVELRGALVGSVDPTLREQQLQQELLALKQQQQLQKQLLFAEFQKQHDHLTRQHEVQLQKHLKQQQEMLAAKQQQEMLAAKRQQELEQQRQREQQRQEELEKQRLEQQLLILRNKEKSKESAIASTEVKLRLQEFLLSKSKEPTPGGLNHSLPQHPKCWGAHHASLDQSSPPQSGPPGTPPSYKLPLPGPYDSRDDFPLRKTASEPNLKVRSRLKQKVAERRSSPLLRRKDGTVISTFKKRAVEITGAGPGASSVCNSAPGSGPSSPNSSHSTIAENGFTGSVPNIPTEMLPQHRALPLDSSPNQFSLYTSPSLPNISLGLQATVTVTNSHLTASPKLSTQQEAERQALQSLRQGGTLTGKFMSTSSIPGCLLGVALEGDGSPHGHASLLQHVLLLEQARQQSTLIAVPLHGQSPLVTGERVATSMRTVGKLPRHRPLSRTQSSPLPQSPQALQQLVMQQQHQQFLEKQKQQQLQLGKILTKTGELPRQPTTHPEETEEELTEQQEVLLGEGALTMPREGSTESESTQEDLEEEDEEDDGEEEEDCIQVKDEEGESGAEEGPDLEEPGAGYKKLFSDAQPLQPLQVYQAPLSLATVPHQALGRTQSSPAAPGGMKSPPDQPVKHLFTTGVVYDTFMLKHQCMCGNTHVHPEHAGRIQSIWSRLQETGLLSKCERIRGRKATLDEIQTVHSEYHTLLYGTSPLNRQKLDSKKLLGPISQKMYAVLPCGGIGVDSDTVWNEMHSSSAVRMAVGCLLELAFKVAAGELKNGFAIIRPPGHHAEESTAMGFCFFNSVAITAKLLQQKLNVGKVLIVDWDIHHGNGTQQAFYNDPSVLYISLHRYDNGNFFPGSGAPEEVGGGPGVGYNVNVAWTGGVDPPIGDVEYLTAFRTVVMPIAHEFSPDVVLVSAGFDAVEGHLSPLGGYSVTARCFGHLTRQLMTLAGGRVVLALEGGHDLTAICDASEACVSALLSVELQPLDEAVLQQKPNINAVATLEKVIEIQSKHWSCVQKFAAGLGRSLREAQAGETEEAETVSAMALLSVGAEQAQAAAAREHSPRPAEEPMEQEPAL
T1 sequence (P56524 whole entry): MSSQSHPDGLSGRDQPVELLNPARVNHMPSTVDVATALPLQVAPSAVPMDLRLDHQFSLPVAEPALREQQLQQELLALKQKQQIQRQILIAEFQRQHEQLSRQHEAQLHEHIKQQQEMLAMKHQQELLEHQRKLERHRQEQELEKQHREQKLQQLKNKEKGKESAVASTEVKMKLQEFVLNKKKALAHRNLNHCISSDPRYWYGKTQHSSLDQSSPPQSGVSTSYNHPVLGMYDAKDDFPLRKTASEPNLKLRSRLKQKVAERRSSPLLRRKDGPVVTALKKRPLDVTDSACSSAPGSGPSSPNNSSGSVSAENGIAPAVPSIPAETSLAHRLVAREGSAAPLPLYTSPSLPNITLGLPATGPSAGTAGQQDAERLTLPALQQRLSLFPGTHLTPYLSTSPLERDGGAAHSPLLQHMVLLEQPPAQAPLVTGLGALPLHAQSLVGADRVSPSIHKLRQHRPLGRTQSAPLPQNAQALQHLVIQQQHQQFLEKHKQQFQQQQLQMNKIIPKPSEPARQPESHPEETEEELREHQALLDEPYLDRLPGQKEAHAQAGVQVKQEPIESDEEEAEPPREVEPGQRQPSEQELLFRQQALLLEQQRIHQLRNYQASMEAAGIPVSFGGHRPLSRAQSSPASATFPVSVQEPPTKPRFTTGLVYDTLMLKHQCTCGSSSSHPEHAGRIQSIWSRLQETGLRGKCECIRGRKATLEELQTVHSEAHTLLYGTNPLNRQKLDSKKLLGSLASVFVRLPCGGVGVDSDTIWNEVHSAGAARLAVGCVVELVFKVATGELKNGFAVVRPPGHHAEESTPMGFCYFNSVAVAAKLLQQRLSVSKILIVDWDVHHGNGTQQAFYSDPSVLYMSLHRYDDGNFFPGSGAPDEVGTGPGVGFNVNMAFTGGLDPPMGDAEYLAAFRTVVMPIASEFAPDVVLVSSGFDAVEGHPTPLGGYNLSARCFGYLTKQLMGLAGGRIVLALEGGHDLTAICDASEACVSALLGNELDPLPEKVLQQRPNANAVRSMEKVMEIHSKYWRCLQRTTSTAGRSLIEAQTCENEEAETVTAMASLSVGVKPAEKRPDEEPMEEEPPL

Compound: Cn1c(/C=C/C(=O)NO)ccc1/C=C/C(=O)c1cccc(F)c1 [MC1568, (E)-3-(5-((E)-3-(3-fluorophenyl)-3-oxoprop-1-en-1-yl)-1-methyl-1H-pyrrol-2-yl)-N-hydroxyacrylamide]
expression of Cx37, Cx40, and KLF2 [1]: significant increased expression
expression of FGF2 (FGF2 [2]): significant downregulation
PAH PAEC proliferation (PAH PAECs [3]): significant reduction
PAH PAEC migration (PAH PAECs [4]): significant reduction
myocardial fibrosis (trichrome staining of right ventricle, gross histology) ([5]; MCT and SUGEN groups, MC1568): no evidence of myocardial fibrosis
muscularization of small arterioles [5, 14]: significantly decreased
right ventricle to left ventricle+septum weight ratios [5, 14]: significant reduction
right ventricular systolic pressures (RVSP) [5, 14]: significant decrease
PCNA-positive proliferating vascular cells ([5]; MCT and SUGEN models, lungs, MC1568 50 mg per kg intraperitoneal daily, vs. control groups): significantly fewer
MEF2 transcriptional targets (Cx37, Cx40 and KLF2) expression [6]: increased
expression of FGF2 in the lungs (FGF2 [7]): significantly decreased
cellular apoptosis as assessed by caspase 3 cleavage [8]: did not result in caspase activation
degradation of HDAC4 (HDAC4 [9]): degradation
degradation of HDAC5 (HDAC5 [10]): degradation
selectivity for class IIa HDACs over other HDAC classes (class IIa HDACs): selective inhibition of class IIa HDACs, without affecting other HDAC classes

degradation of HDAC4 (HDAC4 [9]): degradation
degradation of HDAC5 (HDAC5 [10]): degradation
Compound: O=C(NCC1(c2nc(-c3ccccc3)cs2)CCOCC1)c1cccc(-c2noc(C(F)(F)F)n2)c1 [TMP269, N-((4-(4-phenylthiazol-2-yl)tetrahydro-2H-pyran-4-yl)methyl)-3-(5-(trifluoromethyl)-1,2,4-oxadiazol-3-yl)benzamide]
expression of Cx37, Cx40, and KLF2 [1]: significantly increased
PAH PAEC migration (PAH PAECs [4]): inhibited
right ventricular hypertrophy (right ventricle to left ventricle plus septum weight ratios) [5, 15]: decreased
right ventricular systolic pressures [5, 15]: significantly reduced

Compound: CCCC(CCC)C(=O)O [valproic acid]
effect on the right ventricle [11]: detrimental injury to the right ventricle

Compound: apelin
MEF2 reporter activity (MEF2): significant augmentation
cytoplasmic translocation of HDAC4-GFP (HDAC4-GFP): robust cytoplasmic translocation
cytoplasmic translocation of HDAC5-GFP (HDAC5-GFP): robust cytoplasmic translocation
phosphorylation of HDAC4 (HDAC4 [12]): marked increase in phosphorylation
phosphorylation of HDAC5 (HDAC5 [13]): marked increase in phosphorylation

Compound: CC(/C=C/C(=O)NO)=C\[C@@H](C)C(=O)c1ccc(N(C)C)cc1 [TSA, trichostatin A]
cellular apoptosis as assessed by caspase 3 cleavage [8]: marked induction of cellular apoptosis
effect on the right ventricle [11]: detrimental injury to the right ventricle

Compound: COc1cccc2c1c(O)c(C(=O)N(C)c1ccc(C(F)(F)F)cc1)c(=O)n2C [Tasquinimod, 4-hydroxy-5-methoxy-N,1-dimethyl-2-oxo-N-[4-(trifluoromethyl)phenyl]-1,2-dihydroquinoline-3-carboxamide]
right ventricular hypertrophy (right ventricle to left ventricle plus septum weight ratios) [5, 16]: decreased
right ventricular systolic pressures [5, 16]: significantly reduced
